{"source": "PubChem BioAssay AID1259411", "about": "(Chemical Carcinogenesis Research Information System (CCRIS), 2018)", "test_system": "rodent carcinogenicity bioassays, tumor incidence", "assay": "CCRIS carcinogenicity studies", "summary_of_the_method": "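NCI-built, expert-reviewed records of carcinogenicity and related test outcomes (mutagenicity, tumor promotion/inhibition) compiled from published and report sources, historical span 1985-2011, not updated.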", "note": "The source made the active and inactive calls. How the calls were made is not given here."}
{"smiles": "Nc1nc(N)nc(N)n1", "values": [{"measurement": "carcinogen call", "setting": "Species: MOUSE, Strain/Sex: B6C3F1/FEMALE, Route: ORAL, Dose: 0, 2250, 4500 PPM IN DIET FOR 103 WK, Dose: 0, 2250, 4500 PPM IN DIET FOR 103 WK", "value": "inactive; negative"}, {"measurement": "carcinogen call", "setting": "Species: MOUSE, Strain/Sex: B6C3F1/MALE, Route: ORAL, Dose: 0, 2250, 4500 PPM IN DIET FOR 103 WK, Dose: 0, 2250, 4500 PPM IN DIET FOR 103 WK", "value": "inactive; negative"}, {"measurement": "carcinogen call", "setting": "Species: RAT, Strain/Sex: F344/FEMALE, Route: ORAL, Dose: 0, 4500, 9000 PPM IN DIET FOR 103 WK, Dose: 0, 4500, 9000 PPM IN DIET FOR 103 WK", "value": "inactive; negative"}, {"measurement": "carcinogen call", "setting": "Species: RAT, Strain/Sex: F344/MALE, Route: ORAL, Dose: 0, 0.3, 1, 3% IN DIET FOR 36 WK (STUDY DURATION: 40 WK), Dose: 0, 0.3, 1, 3% IN DIET FOR 36 WK (STUDY DURATION: 40 WK), Tumor Site: Type of Lesion: BLADDER: PAPILLOMA, CARCINOMA", "value": "active; positive"}, {"measurement": "carcinogen call", "setting": "Species: RAT, Strain/Sex: F344/MALE, Route: ORAL, Dose: 0, 1, 3% IN DIET CONTAINING 5% SODIUM CHLORIDE FOR 36 WK (STUDY DURATION: 40 WK), Dose: 0, 1, 3% IN DIET CONTAINING 5% SODIUM CHLORIDE FOR 36 WK (STUDY DURATION: 40 WK), Tumor Site: Type of Lesion: URAINARY BLADDER: PAPILLOMA, CARCINOMA", "value": "active; positive"}, {"measurement": "carcinogen call", "setting": "Species: RAT, Strain/Sex: F344/MALE, Route: ORAL, Dose: 0, 1, 3% IN DIET CONTAINING 10% SODIUM CHLORIDE FOR 36 WK (STUDY DURATION: 40 WK), Dose: 0, 1, 3% IN DIET CONTAINING 10% SODIUM CHLORIDE FOR 36 WK (STUDY DURATION: 40 WK)", "value": "inactive; negative"}, {"measurement": "carcinogen call", "setting": "Species: RAT, Strain/Sex: F344/MALE, Route: ORAL, Dose: 0, 1, 3% IN DIET FOR 36 WK (STUDY DURATION: 40 WK), Dose: 0, 1, 3% IN DIET FOR 36 WK (STUDY DURATION: 40 WK), Tumor Site: Type of Lesion: URINARY BLADDER: PAPILLOMA, CARCINOMA", "value": "active; positive"}, {"measurement": "carcinogen call", "setting": "Species: RAT, Strain/Sex: F344/MALE, Route: ORAL, Dose: 0, 2250, 4500 PPM IN DIET FOR 103 WK, Dose: 0, 2250, 4500 PPM IN DIET FOR 103 WK, Tumor Site: Type of Lesion: URINARY BLADDER: TRANSITIONAL CELL PAPILLOMA OR CARCINOMA", "value": "active; positive"}]}
{"smiles": "O=Cc1ccc(CO)o1", "values": [{"measurement": "carcinogen call", "setting": "Species: MOUSE, Strain/Sex: B6C3F1/MALE, Route: INTRAPERITONEAL, Dose: 0, 0.25, 1 UMOL/G BW IN 5 µL DMSO/G BW ONCE, Dose: 0, 0.25, 1 UMOL/G BW IN 5 µL DMSO/G BW ONCE", "value": "inactive; negative"}, {"measurement": "carcinogen call", "setting": "Species: MOUSE, Strain/Sex: CD-1/FEMALE, Route: DERMAL, Dose: 0, 50 UMOL/0.1 ML DMSO 2/WK FOR 5 WK FOLLOWED 1 WK LATER BY 0.1 ML ACETONE 2/WK FOR 47 WK (STUDY DURATION: 52 WK)", "value": "inactive; negative"}, {"measurement": "carcinogen call", "setting": "Species: Mouse, Strain/Sex: B6C3F1/ Female (50/Group), Route: Oral, Dose: 0, 188, 375, 750 mg/kg by gavage in deionized water for 2 yr, Dose: 0, 188, 375, 750 mg/kg by gavage in deionized water for 2 yr, Tumor Site: Type of Lesion: Liver: hepatocellular adenoma (14/50, 26/49, 26/50, 6/50)", "value": "inactive; negative (ntp reports as some evidence based on increased incidences of hepatoce"}, {"measurement": "carcinogen call", "setting": "Species: Mouse, Strain/Sex: B6C3F1/ Male (50/Group), Route: Oral, Dose: 0, 188, 375, 750 mg/kg by gavage in deionized water for 2 yr, Dose: 0, 188, 375, 750 mg/kg by gavage in deionized water for 2 yr", "value": "inactive; negative"}, {"measurement": "carcinogen call", "setting": "Species: Rat, Strain/Sex: F344/N / Female (50/Group), Route: Oral, Dose: 0, 188, 375, 750 mg/kg by gavage in deionized water for 2 yr, Dose: 0, 188, 375, 750 mg/kg by gavage in deionized water for 2 yr", "value": "inactive; negative"}, {"measurement": "carcinogen call", "setting": "Species: Rat, Strain/Sex: F344/N / Male (50/Group), Route: Oral, Dose: 0, 188, 375, 750 mg/kg by gavage in deionized water for 2 yr, Dose: 0, 188, 375, 750 mg/kg by gavage in deionized water for 2 yr", "value": "inactive; negative"}]}
{"smiles": "Cc1cc2c(c3ccc4ccccc4c13)CCC2=O", "values": [{"measurement": "carcinogen call", "setting": "Species: MOUSE, Strain/Sex: TO/MALE, FEMALE, Route: DERMAL, Dose: 0, 50 UG (10 µL OF A 0.5% W/V TOLUENE SOLUTION) 2/WK FOR 70 WK (STUDY DURATION: 70 WK), Tumor Site: Type of Lesion: SKIN: CARCINOMA", "value": "active; positive"}]}
{"smiles": "Cc1c([N+](=O)[O-])c(C)c([N+](=O)[O-])c(C(C)(C)C)c1[N+](=O)[O-]", "values": [{"measurement": "carcinogen call", "setting": "Species: MOUSE, Strain/Sex: B6C3F1/FEMALE, Route: ORAL, Dose: 0, 0.075, 0.15% IN DIET FOR 80 WK (STUDY DURATION: 80 WK), Dose: 0, 0.075, 0.15% IN DIET FOR 80 WK (STUDY DURATION: 80 WK), Tumor Site: Type of Lesion: LIVER: ADENOMA", "value": "active; positive"}, {"measurement": "carcinogen call", "setting": "Species: MOUSE, Strain/Sex: B6C3F1/MALE, Route: ORAL, Dose: 0, 0.075, 0.15% IN DIET FOR 80 WK (STUDY DURATION: 80 WK), Dose: 0, 0.075, 0.15% IN DIET FOR 80 WK (STUDY DURATION: 80 WK), Tumor Site: Type of Lesion: LIVER: ADENOMA, CARCINOMA, HARDERIAN GLAND: ADENOMA", "value": "active; positive"}]}
{"smiles": "CN(N)C=O", "values": [{"measurement": "carcinogen call", "setting": "Species: MOUSE, Strain/Sex: SWISS/FEMALE, Route: ORAL, Dose: 0, 0.0078% SOLUTION IN DRINKING WATER STARTING AT 6 WK OF AGE FOR LIFE FOR AVERAGE DAILY INTAKE OF 0 OR 0.80 MG (STUDY D, Tumor Site: Type of Lesion: LIVER: HEPATOMA OR CARCINOMA, LUNG: ADENOMA OR ADENOCARCINOMA", "value": "active; positive"}, {"measurement": "carcinogen call", "setting": "Species: MOUSE, Strain/Sex: SWISS/MALE, Route: ORAL, Dose: 0, 0.0078% SOLUTION IN DRINKING WATER STARTING AT 6 WK OF AGE FOR LIFE FOR AVERAGE DAILY INTAKE OF 0 OR 0.99 MG (STUDY D, Tumor Site: Type of Lesion: LIVER: HEPATOMA OR CARCINOMA, LUNG: ADENOMA OR ADENOCARCINOMA, GALLBLADDER: ADENOMA, BILE DUCT: CHOLANGIOMA OR CHOLANGIO, Tumor Site: Type of Lesion: LIVER: HEPATOMA OR CARCINOMA, LUNG: ADENOMA OR ADENOCARCINOMA, GALLBLADDER: ADENOMA, BILE DUCT: CHOLANGIOMA OR CHOLANGIO", "value": "active; positive"}]}
{"smiles": "CCCN(COC(C)=O)N=O", "values": [{"measurement": "carcinogen call", "setting": "Species: RAT, Strain/Sex: F344/FEMALE, Route: SUBCUTANEOUS, Dose: 6.1 MG/KG 1/WK FOR 10 WK, Tumor Site: Type of Lesion: INJECTION SITE: MALIGNANT FIBROUS HISTIOCYTOMA, LUNG: ADENOMA, ADENOCARCINOMA OR SQUAMOUS CELL CARCINOMA, THYROID GLAND:, Tumor Site: Type of Lesion: INJECTION SITE: MALIGNANT FIBROUS HISTIOCYTOMA, LUNG: ADENOMA, ADENOCARCINOMA OR SQUAMOUS CELL CARCINOMA, THYROID GLAND:", "value": "active; positive"}, {"measurement": "carcinogen call", "setting": "Species: RAT, Strain/Sex: F344/MALE, Route: SUBCUTANEOUS, Dose: 6.1 MG/KG 1/WK FOR 10 WK, Tumor Site: Type of Lesion: INJECTION SITE: MALIGNANT FIBROUS HISTIOCYTOMA, LUNG: ADENOMA, ADENOCARCINOMA OR SQUAMOUS CELL CARCINOMA", "value": "active; positive"}]}
{"smiles": "Cn1c(=O)c2c(ncn2C)n(C)c1=O", "note": "(tested in a mixture with another compound)", "values": [{"measurement": "carcinogen call", "setting": "Species: MOUSE, Strain/Sex: B6C3F1/FEMALE, Route: ORAL, Dose: 0, 0.7, 1.4% OF DIET FOR 78 WK (STUDY DURATION: 94 WK), Dose: 0, 0.7, 1.4% OF DIET FOR 78 WK (STUDY DURATION: 94 WK)", "value": "inactive; negative"}, {"measurement": "carcinogen call", "setting": "Species: MOUSE, Strain/Sex: B6C3F1/MALE, Route: ORAL, Dose: 0, 0.7, 1.4% OF DIET FOR 78 WK (STUDY DURATION: 94 WK), Dose: 0, 0.7, 1.4% OF DIET FOR 78 WK (STUDY DURATION: 94 WK)", "value": "inactive; negative"}, {"measurement": "carcinogen call", "setting": "Species: RAT, Strain/Sex: F344/FEMALE, Route: ORAL, Dose: 0, 0.7, 1.4% OF DIET FOR 78 WK (STUDY DURATION: 113 WK), Dose: 0, 0.7, 1.4% OF DIET FOR 78 WK (STUDY DURATION: 113 WK), Tumor Site: Type of Lesion: BLADDER: TRANSITIONAL CELL CARCINOMA, KIDNEY: TUBULAR CELL ADENOCARCINOMA, TRANSITIONAL CELL PAPILLOMA", "value": "equivocal"}, {"measurement": "carcinogen call", "setting": "Species: RAT, Strain/Sex: F344/MALE, Route: ORAL, Dose: 0, 0.7, 1.4% OF DIET FOR 78 WK (STUDY DURATION: 113 WK), Dose: 0, 0.7, 1.4% OF DIET FOR 78 WK (STUDY DURATION: 113 WK)", "value": "inactive; negative"}]}
